# In ChEMBL document CHEMBL1201862, “PubChem BioAssay data set” (2004):
#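 All cell lines were grown in 96-well plates and treated with compound for 48 hours. GI50 marks 50% less growth.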 Calls of active or inactive are those of the source. Cut-off read from the data, not from the text of the source: active = GI50 up to about 1.1 µM and inactive = higher.
# What was measured:
# Experiment in all cases: growth of human tumour cells (NCI), 48 h
# [1] = test system: SK-MEL-2
# [2] = test system: SNB-75
# [3] = test system: HCT-116
# [4] = test system: SW-620
# [5] = test system: A549
# [6] = test system: T47D
# [7] = test system: U-251
# [8] = test system: SK-OV-3
# [9] = test system: NCI-H23
# [10] = test system: CAKI-1
# [11] = test system: SK-MEL-5
# [12] = test system: COLO 205
# [13] = test system: UACC-62
# [14] = test system: M14
# [15] = test system: Malme-3M
# [16] = test system: HL-60
# [17] = test system: NCI-H522
# [18] = test system: HCC 2998
# [19] = test system: LOX IMVI
SMILES,GI50 [1],GI50 [2],GI50 [3],GI50 [4],GI50 [5],GI50 [6],GI50 [7],GI50 [8],GI50 [9],GI50 [10],GI50 [11],GI50 [12],GI50 [13],GI50 [14],GI50 [15],GI50 [16],GI50 [17],GI50 [18],GI50 [19]
COc1cc([C@@H]2c3cc4c(cc3[C@@H](NCCNCCO)[C@H]3COC(=O)[C@H]23)OCO4)cc(OC)c1O,2.78 µM (inactive),1.19 µM (inactive),2 µM (inactive),2.84 µM (inactive),0.406 µM (active),0.841 µM (active),0.813 µM (active),2.33 µM (inactive),1.08 µM (active),2.83 µM (inactive),0.659 µM (active),2.42 µM (inactive),0.601 µM (active),3.48 µM (inactive),–,–,–,–,–
O=C(O)c1cc2ccccc2c(/N=N/c2ccccc2)c1O,> 10 µM (inactive),19.8 µM (inactive),35.4 µM (inactive),23.8 µM (inactive),18.1 µM (inactive),38.1 µM (inactive),12.8 µM (inactive),41.9 µM (inactive),16.7 µM (inactive),35.6 µM (inactive),5.47 µM (inactive),17.9 µM (inactive),17.4 µM (inactive),14.9 µM (inactive),13.1 µM (inactive),10 µM (inactive),26.6 µM (inactive),–,–
C(=C\c1cc(-c2ccc3ccccc3n2)nc2ccc3ccccc3c12)/c1ccc2ccccc2n1,–,24 µM (inactive),> 100 µM (inactive),> 100 µM (inactive),> 100 µM (inactive),–,> 100 µM (inactive),> 100 µM (inactive),> 10 µM (inactive),> 100 µM (inactive),> 100 µM (inactive),> 100 µM (inactive),> 100 µM (inactive),> 100 µM (inactive),> 100 µM (inactive),> 100 µM (inactive),–,> 100 µM (inactive),> 100 µM (inactive)
CC1OC(OC2C(CO)OC(O[C@H]3CC[C@@]4(C)C(=CC[C@H]5[C@@H]6C[C@@H]7O[C@](O)(CC[C@H](C)COC8OC(CO)C(O)C(O)C8O)[C@@H](C)[C@@H]7[C@@]6(C)CC[C@@H]54)C3)C(OC3OC(C)C(O)C(O)C3O)C2O)C(O)C(O)C1O (stereo not given in full),6.21 µM (inactive),2.16 µM (inactive),3.72 µM (inactive),0.644 µM (active),2.35 µM (inactive),3.51 µM (inactive),3.15 µM (inactive),2.91 µM (inactive),4.29 µM (inactive),1.77 µM (inactive),7.1 µM (inactive),5.01 µM (inactive),5.42 µM (inactive),3.05 µM (inactive),5.6 µM (inactive),4.66 µM (inactive),2.88 µM (inactive),–,2.17 µM (inactive)
CCOP(=O)(Nc1ccccc1P(=O)(OCC)OCC)OCC,> 100 µM (inactive),> 100 µM (inactive),> 100 µM (inactive),> 100 µM (inactive),> 100 µM (inactive),–,> 100 µM (inactive),> 100 µM (inactive),> 100 µM (inactive),> 100 µM (inactive),> 100 µM (inactive),> 100 µM (inactive),> 100 µM (inactive),> 100 µM (inactive),> 100 µM (inactive),–,> 100 µM (inactive),> 100 µM (inactive),–
CCCCOC(=O)C(NC(C(=O)OCCCC)c1cc(C(C)(C)C)c(O)c(C(C)(C)C)c1)c1cc(C(C)(C)C)c(O)c(C(C)(C)C)c1 (stereo not given),> 100 µM (inactive),8.63 µM (inactive),77.1 µM (inactive),> 100 µM (inactive),> 100 µM (inactive),> 100 µM (inactive),> 100 µM (inactive),> 100 µM (inactive),> 100 µM (inactive),> 100 µM (inactive),> 100 µM (inactive),> 100 µM (inactive),> 100 µM (inactive),> 100 µM (inactive),> 100 µM (inactive),> 100 µM (inactive),> 100 µM (inactive),–,> 100 µM (inactive)
COC(=O)Nc1nc2cc(NS(=O)(=O)c3ccc(F)cc3)ccc2[nH]1,31 µM (inactive),6.49 µM (inactive),4.54 µM (inactive),6.27 µM (inactive),37.2 µM (inactive),> 100 µM (inactive),19.1 µM (inactive),13.1 µM (inactive),21.8 µM (inactive),23.6 µM (inactive),5.77 µM (inactive),5.25 µM (inactive),9.23 µM (inactive),7.48 µM (inactive),7.5 µM (inactive),4.03 µM (inactive),2.1 µM (inactive),–,48.1 µM (inactive)
C[C@H](N)C(=O)Nc1ccc(-c2nc3ccccc3s2)cc1,28.6 µM (inactive),18 µM (inactive),15.2 µM (inactive),17.2 µM (inactive),15.6 µM (inactive),17.5 µM (inactive),16.9 µM (inactive),22.5 µM (inactive),32.2 µM (inactive),17.1 µM (inactive),20.1 µM (inactive),18.6 µM (inactive),18.5 µM (inactive),10.9 µM (inactive),19.1 µM (inactive),–,18.5 µM (inactive),20.9 µM (inactive),19.1 µM (inactive)
CN1/C(=C/C=C/C=C/C=C2C(=O)c3ccccc3C2=O)C(C)(C)c2ccccc21,20.3 µM (inactive),48.6 µM (inactive),> 100 µM (inactive),> 100 µM (inactive),7 µM (inactive),6.76 µM (inactive),–,39.4 µM (inactive),41 µM (inactive),44 µM (inactive),18.5 µM (inactive),26.6 µM (inactive),17.7 µM (inactive),37.5 µM (inactive),29.4 µM (inactive),36.6 µM (inactive),28.6 µM (inactive),–,40.3 µM (inactive)
CC(CCCCNC(=O)OC(C)(C)C)NC(=O)NC(C)CCCCNC(=O)OC(C)(C)C (stereo not given),–,> 100 µM (inactive),50.7 µM (inactive),> 100 µM (inactive),> 100 µM (inactive),83 µM (inactive),> 100 µM (inactive),> 100 µM (inactive),> 100 µM (inactive),> 100 µM (inactive),30 µM (inactive),56.6 µM (inactive),73.6 µM (inactive),> 100 µM (inactive),> 100 µM (inactive),39 µM (inactive),> 100 µM (inactive),–,> 100 µM (inactive)
Cn1nc2n(c1=O)CCCN2,–,> 100 µM (inactive),> 100 µM (inactive),> 100 µM (inactive),> 100 µM (inactive),–,> 100 µM (inactive),–,> 100 µM (inactive),–,> 100 µM (inactive),> 100 µM (inactive),–,–,> 100 µM (inactive),> 100 µM (inactive),> 100 µM (inactive),> 100 µM (inactive),> 100 µM (inactive)
O=[N+]([O-])c1cccc(/C=N/NC2=CS(=O)(=O)C=C2)c1,> 100 µM (inactive),91 µM (inactive),> 100 µM (inactive),> 100 µM (inactive),> 100 µM (inactive),> 100 µM (inactive),> 100 µM (inactive),> 100 µM (inactive),> 100 µM (inactive),> 100 µM (inactive),> 100 µM (inactive),> 100 µM (inactive),> 100 µM (inactive),> 100 µM (inactive),> 100 µM (inactive),42.6 µM (inactive),> 100 µM (inactive),–,> 100 µM (inactive)
CCSC1=N/C(=C\c2ccco2)C(Nc2ccc(C)cc2)=N1,> 100 µM (inactive),> 100 µM (inactive),> 100 µM (inactive),> 100 µM (inactive),> 100 µM (inactive),–,> 100 µM (inactive),> 100 µM (inactive),> 100 µM (inactive),–,> 100 µM (inactive),> 100 µM (inactive),> 100 µM (inactive),> 100 µM (inactive),52 µM (inactive),–,> 100 µM (inactive),–,> 100 µM (inactive)
C[C@@]12CCCC(=O)N1[C@@H](CO)C(c1ccccc1)O2 (stereo not given in full),> 100 µM (inactive),> 100 µM (inactive),> 100 µM (inactive),> 100 µM (inactive),> 100 µM (inactive),–,> 100 µM (inactive),–,> 100 µM (inactive),> 100 µM (inactive),> 100 µM (inactive),> 100 µM (inactive),> 100 µM (inactive),–,> 100 µM (inactive),–,–,–,> 100 µM (inactive)
C[C@@H](c1ccccc1)N(CC#N)C1CCC[C@H]1O (stereo not given in full),> 100 µM (inactive),> 100 µM (inactive),> 100 µM (inactive),> 100 µM (inactive),> 100 µM (inactive),–,> 100 µM (inactive),> 100 µM (inactive),> 100 µM (inactive),–,> 100 µM (inactive),> 100 µM (inactive),> 100 µM (inactive),> 100 µM (inactive),> 100 µM (inactive),> 100 µM (inactive),> 100 µM (inactive),> 100 µM (inactive),> 100 µM (inactive)
CC(C)=CCc1cc(/C=C/C(=O)O)cc(CC=C(C)C)c1O [ARTEPILLIN],> 100 µM (inactive),–,> 100 µM (inactive),> 100 µM (inactive),> 100 µM (inactive),–,> 100 µM (inactive),> 100 µM (inactive),> 100 µM (inactive),> 100 µM (inactive),> 100 µM (inactive),> 100 µM (inactive),66.8 µM (inactive),> 100 µM (inactive),–,> 100 µM (inactive),31.3 µM (inactive),–,43.7 µM (inactive)
